Experiments:
[1] = molecular target: orotidine 5’-monophosphate decarboxylase (MtOMPDC) (Methanothermobacter thermautotrophicus, UniProt O26232); assay: X-ray crystal structure, […] Å; assay type: biochemical
[2] = molecular target: orotidine 5’-monophosphate decarboxylase (MtOMPDC) (Methanothermobacter thermautotrophicus, UniProt O26232, D70G)
Chain of orotidine 5’-monophosphate decarboxylase (MtOMPDC) (Methanothermobacter thermautotrophicus, UniProt O26232, D70G) (O26232 whole entry D70G): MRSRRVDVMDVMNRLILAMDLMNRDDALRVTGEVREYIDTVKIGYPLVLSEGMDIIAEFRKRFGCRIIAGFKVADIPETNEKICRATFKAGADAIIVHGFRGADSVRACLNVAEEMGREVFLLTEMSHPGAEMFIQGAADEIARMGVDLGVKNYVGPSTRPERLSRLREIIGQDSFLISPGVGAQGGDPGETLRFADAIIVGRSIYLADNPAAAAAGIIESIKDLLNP

Chain of orotidine 5’-monophosphate decarboxylase (MtOMPDC) (Methanothermobacter thermautotrophicus, UniProt O26232) (O26232 whole entry): as the sequence (O26232 whole entry D70G) above, with G70D counted along it

Ki [1]	SMILES	X-ray crystal structure, 1.3 Å; also H6 exchange by NMR [2]
100 µM	O=C1CC(C(=O)O)N([C@@H]2O[C@H](COP(=O)(O)O)[C@@H](O)[C@H]2O)C(=O)N1 (stereo partly drawn) [(6R)-H2OMP]	
	O=c1[nH]c(=O)n([C@@H]2O[C@H](COP(=O)(O)O)[C@@H](O)[C@H]2O)cc1F [FUMP]	structures were obtained for D70G in the absence of ligands and complexed with UMP and FUMP
